This experiment concerns P388 leukemia ip, CD2F1 mice, survival T/C. The experiment can be described thus: NCI In Vivo Anticancer Drug Screen. Data for tumor model P388 Leukemia (intraperitoneal) in CD2F1 (CDF1) mice. As to conditions: endpoint: median survival time, higher = longer survival. The gist of the method: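 Mice carrying the transplanted tumor received test compound or vehicle. Survival was recorded in each group, and the value is the treated-group measurement divided by that of the vehicle-treated control group.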

Where [1] appears, read: dose: 1.56 mg/kg/injection, schedule: Q01DX009 (ip), vehicle: water.
Where [2] appears, read: dose: 6.25 mg/kg/injection, schedule: Q01DX009 (ip), vehicle: water.
Where [3] appears, read: dose: 12.5 mg/kg/injection, schedule: Q01DX009 (ip), vehicle: water.
Setting [4] is: dose: 25.0 mg/kg/injection, schedule: Q01DX009 (ip), vehicle: water.
[5] abbreviates: dose: 50.0 mg/kg/injection, schedule: Q01DX009 (ip), vehicle: water.
The mark [6] stands for this setting: dose: 60.0 mg/kg/injection, schedule: Q01DX005 (ip), vehicle: saline with Tween-80.
The mark [7] stands for this setting: dose: 120.0 mg/kg/injection, schedule: Q01DX005 (ip), vehicle: saline with Tween-80.
Setting [8] is: dose: 240.0 mg/kg/injection, schedule: Q01DX005 (ip), vehicle: saline with Tween-80.
The mark [9] stands for this setting: dose: 50.0 mg/kg/injection, schedule: Q01DX005 (ip), vehicle: Klucel (hydroxypropylcellulose) (HPC).
The mark [10] stands for this setting: dose: 100.0 mg/kg/injection, schedule: Q01DX005 (ip), vehicle: Klucel (hydroxypropylcellulose) (HPC).
Where [11] appears, read: dose: 200.0 mg/kg/injection, schedule: Q01DX005 (ip), vehicle: Klucel (hydroxypropylcellulose) (HPC).
Where [12] appears, read: dose: 50.0 mg/kg/injection, schedule: Q01DX005 (ip), vehicle: saline with Tween-80.
The mark [13] stands for this setting: dose: 100.0 mg/kg/injection, schedule: Q01DX005 (ip), vehicle: saline with Tween-80.
[14] abbreviates: dose: 200.0 mg/kg/injection, schedule: Q01DX005 (ip), vehicle: saline with Tween-80.
Where [15] appears, read: dose: 50.0 mg/kg/injection, schedule: Q01DX009 (ip), vehicle: Klucel (hydroxypropylcellulose) (HPC).
Setting [16] is: dose: 100.0 mg/kg/injection, schedule: Q01DX009 (ip), vehicle: Klucel (hydroxypropylcellulose) (HPC).
Where [17] appears, read: dose: 12.5 mg/kg/injection, schedule: Q01DX009 (ip), vehicle: Klucel (hydroxypropylcellulose) (HPC).
[18] abbreviates: dose: 50.0 mg/kg/injection, schedule: Q01DX005 (ip), vehicle: saline.
Setting [19] is: dose: 100.0 mg/kg/injection, schedule: Q01DX005 (ip), vehicle: saline.
[20] abbreviates: dose: 200.0 mg/kg/injection, schedule: Q01DX005 (ip), vehicle: saline.

Values joined by “and” are separate entries in the source; they are usually repeats but may differ in a detail not shown here. Identical values can stand only once. Inconclusive results and toxic doses are left out.

For the molecule `O=NNc1nc2c(Cl)cccc2s1`, the T/C is 102 % of control under setting [1]; 101 % of control (dose: 3.12 mg/kg/injection, schedule: Q01DX009 (ip), vehicle: water); 102 % of control (dose: 3.15 mg/kg/injection, schedule: Q01DX009 (ip), vehicle: water); 99 % of control and 100 % of control under setting [2]; 99 % of control and 114 % of control under setting [3]; 100 % of control and 111 % of control under setting [4]. Also, under setting [5], the T/C was 106 % of control.

With `CN=C(N)N/N=C(\C)c1ccc2c(c1)-c1ccc(/C(C)=N/NC(N)=NC)c3cccc-2c13`, the T/C was 104 % of control (dose: 3.12 mg/kg/injection, schedule: Q04DX002 (ip), vehicle: saline with Tween-80); 99 % of control (dose: 6.25 mg/kg/injection, schedule: Q04DX002 (ip), vehicle: saline with Tween-80); 100 % of control (dose: 12.5 mg/kg/injection, schedule: Q04DX002 (ip), vehicle: saline with Tween-80).

For `COC(=O)/C(C(C)=O)=C1\C(=O)OCC1(C)C`, the T/C is 102 % of control (dose: 100.0 mg/kg/injection, schedule: Q04DX003 (ip), vehicle: saline); 105 % of control (dose: 200.0 mg/kg/injection, schedule: Q04DX003 (ip), vehicle: saline); 100 % of control (dose: 400.0 mg/kg/injection, schedule: Q04DX003 (ip), vehicle: saline).

As for `O=C(CNC(=O)NCc1ccco1)NNC(=O)Nc1ccc(F)c(Cl)c1`, the T/C under setting [6] was 101 % of control, the T/C under setting [7] is 106 % of control and the T/C under setting [8] is 110 % of control.

For `CCCCNC(=O)CCC(NS(=O)(=O)c1ccc(C)cc1)C(=O)NCCCC` (configuration not stated), the T/C is, setting by setting: under setting [9], 93 % of control; under setting [10], 100 % of control; under setting [11], 93 % of control.

In the case of `Clc1ccc(-c2csc3sc4ccccc4[n+]23)cc1`, the T/C is, setting by setting: under setting [12], 111 % of control; under setting [13], 118 % of control; under setting [14], 113 % of control.

In the case of `O=C(Cc1ccccc1)CC(CC(=O)Cc1ccccc1)c1ccccc1`, the T/C under setting [12] was 94 % of control, the T/C under setting [13] is 89 % of control and the T/C under setting [14] was 103 % of control.

Consider `COc1ccccc1NC(=O)CC(=O)c1ccc([N+](=O)[O-])cc1`, for which the T/C runs as follows: (dose: 6.25 mg/kg/injection, schedule: Q04DX003 (ip), vehicle: saline sonified) 100 % of control; (dose: 12.5 mg/kg/injection, schedule: Q04DX003 (ip), vehicle: saline sonified) 100 % of control; (dose: 25.0 mg/kg/injection, schedule: Q04DX003 (ip), vehicle: saline sonified) 100 % of control.

Turning to `FC(F)(F)c1ccc(Cl)c(N=Cc2ccc(C=Nc3cc(C(F)(F)F)ccc3Cl)cc2)c1`, the T/C under setting [15] was 91 % of control and the T/C under setting [16] was 98 % of control.

As to `CC1=C(CCC(=O)O)c2cc3nc(cc4[nH]c(cc5[nH]c(cc1n2)c(C)c5C1CC1C(=O)O)c(C)c4C1CC1C(=O)O)C(C)=C3CCC(=O)O` (configuration not stated), the T/C is, setting by setting: under setting [9], 106 % of control; under setting [10], 101 % of control; under setting [11], 95 % of control.

For the molecule `[Br][Hg][CH]1CCC2CCCC1O2` (configuration not stated), the T/C is 89 % of control under setting [17] and 90 % of control (dose: 25.0 mg/kg/injection, schedule: Q01DX009 (ip), vehicle: Klucel (hydroxypropylcellulose) (HPC)).

Take `CCCC(C(=O)OC)C(=O)C(C)c1nc2n(c1O)C(=N)N=N2` (configuration not stated): the T/C is 97 % of control under setting [18], 97 % of control under setting [19] and 98 % of control under setting [20].

For `C(=Nc1ccncc1)c1c[nH]c2ccccc12`, the T/C is 104 % of control (dose: 3.12 mg/kg/injection, schedule: Q01DX001 (ip), vehicle: Klucel (hydroxypropylcellulose) (HPC)); 98 % of control (dose: 6.25 mg/kg/injection, schedule: Q01DX001 (ip), vehicle: Klucel (hydroxypropylcellulose) (HPC)); 101 % of control and 104 % of control (dose: 12.5 mg/kg/injection, schedule: Q01DX001 (ip), vehicle: Klucel (hydroxypropylcellulose) (HPC)).

With `Cc1ccc(S(=O)(=O)/N=S(\C)CCCl)cc1` (configuration not stated), the T/C is 100 % of control (dose: 100.0 mg/kg/injection, schedule: Q04DX003 (ip), vehicle: suspension in saline); 100 % of control (dose: 200.0 mg/kg/injection, schedule: Q04DX003 (ip), vehicle: suspension in saline); 106 % of control (dose: 400.0 mg/kg/injection, schedule: Q04DX003 (ip), vehicle: suspension in saline).

As to `CCOC(=O)c1c(-c2ccccc2)noc1N`, the T/C runs as follows: (dose: 25.0 mg/kg/injection, schedule: Q01DX005 (ip), vehicle: saline) 100 % of control; under setting [18], 100 % of control; under setting [19], 98 % of control; under setting [20], 100 % of control; (dose: 400.0 mg/kg/injection, schedule: Q01DX005 (ip), vehicle: saline) 104 % of control.

Regarding `CSC(=S)N/N=C(\Cc1ccccc1)c1ccccn1`, the T/C by setting is: (dose: 12.5 mg/kg/injection, schedule: Q01DX005 (ip), vehicle: saline with Tween-80) 103 % of control; (dose: 25.0 mg/kg/injection, schedule: Q01DX005 (ip), vehicle: saline with Tween-80) 106 % of control; under setting [12], 99 % of control and 108 % of control; under setting [13], 107 % of control; under setting [14], 107 % of control.

`COc1ccc2nc3cc(Cl)ccc3c(NC(C)CCCN(C)C)c2n1` (configuration not stated): the T/C is, setting by setting: under setting [18], 102 % of control; under setting [19], 110 % of control.

Regarding `CC(C)c1ccc(/C=N\NC(=S)N/N=C\c2ccc(C(C)C)cc2)cc1`, the T/C is, setting by setting: (dose: 6.25 mg/kg/injection, schedule: Q01DX009 (ip), vehicle: Klucel (hydroxypropylcellulose) (HPC)) 96 % of control; under setting [17], 86 % of control.

On to `COc1cccc2c1C(=O)c1c(O)c3c(c(O)c1C2=O)C[C@@](O)(C(C)=O)C[C@@H]3OC1CC(N(Cc2ccccc2)Cc2ccccc2)C(O)C(C)O1` (some centres not stated), for which the T/C is 105 % of control (dose: 0.78 mg/kg/injection, schedule: Q01DX009 (ip), vehicle: water); 114 % of control under setting [1]; 156 % of control under setting [2]; 189 % of control and 221 % of control under setting [3]; 158 % of control (dose: 13.0 mg/kg/injection, schedule: Q04DX003 (ip), vehicle: water); 180 % of control (dose: 21.6 mg/kg/injection, schedule: Q04DX003 (ip), vehicle: water). For the same molecule, the T/C reads like this: under setting [4], 247 % of control and 271 % of control; under setting [5], 92 % of control; (dose: 60.0 mg/kg/injection, schedule: Q04DX003 (ip), vehicle: water) 94 % of control.

As for `Cc1ccc(O)c(C2CC(C#N)CCN2C)c1` (configuration not stated), the T/C under setting [6] was 98 % of control, the T/C under setting [7] is 100 % of control and the T/C under setting [8] was 105 % of control.

As for `CC(=O)N1CCC(/C(C)=N/O)CC1`, the T/C is, setting by setting: under setting [18], 107 % of control; under setting [19], 101 % of control; under setting [20], 106 % of control.

Turning to `O=c1[nH]ccc2nc(-c3ccccc3)cn12`, the T/C (dose: 100.0 mg/kg/injection, schedule: Q04DX003 (ip), vehicle: Klucel (hydroxypropylcellulose) (HPC)) is 106 % of control; the T/C (dose: 200.0 mg/kg/injection, schedule: Q04DX003 (ip), vehicle: Klucel (hydroxypropylcellulose) (HPC)) is 104 % of control; the T/C (dose: 400.0 mg/kg/injection, schedule: Q04DX003 (ip), vehicle: Klucel (hydroxypropylcellulose) (HPC)) is 105 % of control.

For `CCOC(=O)c1ccc(NC(c2ccc(N(CCCl)CCCl)cc2)P(=O)(Oc2ccccc2)Oc2ccccc2)cc1` (configuration not stated), the T/C runs as follows: under setting [15], 93 % of control; under setting [16], 96 % of control; (dose: 200.0 mg/kg/injection, schedule: Q01DX009 (ip), vehicle: Klucel (hydroxypropylcellulose) (HPC)) 95 % of control.

`NC(COC(=O)c1ccccc1)C(=O)O` (configuration not stated): the T/C was 100 % of control under setting [12], 98 % of control under setting [13] and 93 % of control under setting [14].

The values are drawn from PubChem BioAssay AID330 (DTP/NCI, 2004).
